According to article PMC11237035, “Glutathione determines chronic myeloid leukemia vulnerability to an inhibitor of CMPK and TMPK” (Communications Biology, 2024):
“And” between values parts separate entries of the source, which are not always exact repeats. Equal entries are not always repeated. Where two headings read alike, the source gives them in different places.

Tests used:
Format in all cases: cell-based, mouse
T315I-Bcr-Abl-32D cells [1] = assay: dTTP/dCTP pools by RCA-qPCR in T315I-Bcr-Abl-32D cells; conditions: T315I-Bcr-Abl-32D cells, combinatory treatment of UK-5099 with JMF4073
Method: The methanol extracts were centrifuged
For chloroform extraction, same volume of
attomol of the annealed template-primer.
The RCA products were determined by
The thiophenol compound 3 was
(98.5%) after silica gel chromatography.

untransformed 32D cells = assay: CCK-8 cell viability assay, untransformed 32D cells; conditions: for viability (vehicle, 0 = 100): 32D cells, 72 h, no BSO; for viability (vehicle, 0 = 100) / viability (0 = 100): single replicates; for viability (0 = 100): Untransformed
Method: After 72 h, viability assays were performed.
3 independent experiments. Asterisks denote ***p<0.001 from non-paired two-tailed

WT-Bcr-Abl-32D cells = assay: CCK-8 cell viability assay, WT-Bcr-Abl-32D cells; conditions: for viability (0 = 100): single replicates
T315I-Bcr-Abl-32D cells [2] = assay: CCK-8 cell viability assay, T315I-Bcr-Abl-32D cells; conditions: for cell viability (% of NT, 0 JMF4073), Figure 5e / cell viability (% of 0 JMF4073), Figure 5b: T315I; for cell viability (% of NT, 0 JMF4073), Figure 5e: NT (no BSO)

CC(C)(C)OC(=O)N1CCN(C(=O)Cn2sc3ccc(F)cc3c2=O)CC1 [JMF4073, Tert-butyl 4-(2-(5-fluoro-3-oxobenzo[d]isothiazol-2(3H)-yl)acetyl) piperazine-1-carboxylate]
dCTP pool (T315I-Bcr-Abl-32D cells [1]): exhaustion | dTTP pool (T315I-Bcr-Abl-32D cells [1]): exhaustion | viability (vehicle, 0 = 100) (untransformed 32D cells; JMF4073 0.5 mM (so in the source)): 108 and 88 | viability (vehicle, 0 = 100) (untransformed 32D cells; JMF4073 1.25 mM (so in the source)): 86 and 80 | viability (vehicle, 0 = 100) (untransformed 32D cells; JMF4073 2.5 mM (so in the source)): 70 and 71.46 | growth of cells, BSO in combination with JMF4073 (untransformed 32D cells; 32D myeloid progenitor cells): severely suppressed the growth | GI50 (untransformed 32D cells; Mus musculus, untransformed 32D cells, viability): 4.2 µM | viability (0 = 100) (untransformed 32D cells; JMF4073 1 mM (so in the source)): 80.74 and 95.63 and 110 | viability (0 = 100) (untransformed 32D cells; JMF4073 2 mM (so in the source)): 67.24 and 95.4 and 71 | viability (0 = 100) (untransformed 32D cells; JMF4073 5 mM (so in the source)): 26.41 and 55.58 and 32 | GI50 (WT-Bcr-Abl-32D cells; Mus musculus, WT-Bcr-Abl-32D cells, viability): 670 nM | viability (0 = 100) (WT-Bcr-Abl-32D cells; WT-Bcr-Abl, JMF4073 1 mM (so in the source)): 5 and 32.8138 and 24 | viability (0 = 100) (WT-Bcr-Abl-32D cells; WT-Bcr-Abl, JMF4073 2 mM (so in the source)): 1 and 9.014 and 19 | viability (0 = 100) (WT-Bcr-Abl-32D cells; WT-Bcr-Abl, JMF4073 5 mM (so in the source)): -1.08 and 0.13 and 0 | cell viability (% of NT vehicle), Figure 5h (WT-Bcr-Abl-32D cells; WT-Bcr-Abl, NT (no NAC), JMF4073, single replicates): 28.4633 and 15.0339 and 2.584 | JMF4073 sensitivity after NAC treatment (WT-Bcr-Abl-32D cells; WT-Bcr-Abl-32D cells, NAC 1 mM + JMF4073 0.5 μM, 72 h): insensitive to JMF4073 | viability at 1000 µM (T315I-Bcr-Abl-32D cells [2]; Mus musculus, T315I-Bcr-Abl, JMF4073 1 mM (so in the source), single replicates, read-out: viability (0 = 100)): 69% | viability at 500 µM (T315I-Bcr-Abl-32D cells [2]; Mus musculus, T315I-Bcr-Abl, NT (no UK-5099), JMF4073 0.5 mM as printed, replicates, read-out: Figure 6c, viability relative to NT (=100)): 80.7% | viability at 1250 µM (T315I-Bcr-Abl-32D cells [2]; Mus musculus, T315I-Bcr-Abl, NT (no UK-5099), JMF4073 1.25 mM as printed, replicates, read-out: Figure 6c, viability relative to NT (=100)): 43% | viability at 500 µM (T315I-Bcr-Abl-32D cells [2]; Mus musculus, read-out: cell viability (% of 0 JMF4073), Figure 5b, T315I, shLacZ, JMF4073 0.5 mM (so in the source), single replicates): 78.6% | viability at 2500 µM (T315I-Bcr-Abl-32D cells [2]; Mus musculus, read-out: cell viability (% of 0 JMF4073), Figure 5b, T315I, shLacZ, JMF4073 2.5 mM (so in the source), single replicates): 15.5% | viability at 500 µM (T315I-Bcr-Abl-32D cells [2]; Mus musculus, read-out: cell viability (% of 0 JMF4073), Figure 5b, T315I, shSHMT2, JMF4073 0.5 mM (so in the source), single replicates): 71.4% | viability at 1250 µM (T315I-Bcr-Abl-32D cells [2]; Mus musculus, read-out: cell viability (% of 0 JMF4073), Figure 5b, T315I, shSHMT2, JMF4073 1.25 mM (so in the source), single replicates): 52.1% | viability at 2500 µM (T315I-Bcr-Abl-32D cells [2]; Mus musculus, read-out: cell viability (% of 0 JMF4073), Figure 5b, T315I, shSHMT2, JMF4073 2.5 mM (so in the source), single replicates): 14.5% | viability at 500 µM (T315I-Bcr-Abl-32D cells [2]; Mus musculus, read-out: cell viability (% of NT, 0 JMF4073), Figure 5e, T315I, NT (no BSO), JMF4073 0.5 mM (so in the source), single replicates): 88% | viability at 1250 µM (T315I-Bcr-Abl-32D cells [2]; Mus musculus, read-out: cell viability (% of NT, 0 JMF4073), Figure 5e, T315I, NT (no BSO), JMF4073 1.25 mM (so in the source), single replicates): 64% | GI50 (T315I-Bcr-Abl-32D cells [2]; Mus musculus, T315I-Bcr-Abl-32D cells, viability): 1500 nM | cell viability (% of NT, 0 JMF4073), Figure 5e (T315I-Bcr-Abl-32D cells [2]; JMF4073 0.5 mM (so in the source), single replicates): 86.2452 and 88.0302 | cell viability (% of NT, 0 JMF4073), Figure 5e (T315I-Bcr-Abl-32D cells [2]; JMF4073 1.25 mM (so in the source), single replicates): 67.023 and 70.4858 | cell viability (% of NT, 0 JMF4073), Figure 5e (T315I-Bcr-Abl-32D cells [2]; JMF4073 2.5 mM (so in the source), single replicates): 17 and 12.279 and 45.0063 | cell viability (% of 0 JMF4073), Figure 5b (T315I-Bcr-Abl-32D cells [2]; shLacZ, JMF4073 0.5 mM (so in the source), single replicates): 80.777 | cell viability (% of 0 JMF4073), Figure 5b (T315I-Bcr-Abl-32D cells [2]; shLacZ, JMF4073 1.25 mM (so in the source), single replicates): 68.6184 and 53.2629 | cell viability (% of 0 JMF4073), Figure 5b (T315I-Bcr-Abl-32D cells [2]; shLacZ, JMF4073 2.5 mM (so in the source), single replicates): 11.7008 | cell viability (% of 0 JMF4073), Figure 5b (T315I-Bcr-Abl-32D cells [2]; shSHMT2, JMF4073 0.5 mM (so in the source), single replicates): 67.1231 | cell viability (% of 0 JMF4073), Figure 5b (T315I-Bcr-Abl-32D cells [2]; shSHMT2, JMF4073 1.25 mM (so in the source), single replicates): 37.9395 | cell viability (% of 0 JMF4073), Figure 5b (T315I-Bcr-Abl-32D cells [2]; shSHMT2, JMF4073 2.5 mM (so in the source), single replicates): 11.3951 | viability (0 = 100) (T315I-Bcr-Abl-32D cells [2]; T315I-Bcr-Abl, JMF4073 1 mM (so in the source), single replicates): 70 and 66.4746
